The values that follow come from patent US20060111305A1, “Metabolites of certain [1,4]diazepino[6,7,1-ij]quinoline derivatives and methods of preparation and use thereof” (Wyeth, priority 2004, published 2006).

In the data set the test system is UGT (UDPGA-dependent glucuronidation). Briefly: Incubation of [14C]DCDQ with human liver microsomes (Km values, metabolite formation). Conditions: pH 7.4; 0.5 mg/mL human liver microsomes, [14C]DCDQ 0.5-100 μM, UDPGA, 10 min. It is filed as in vitro ADME. As to the method: [^14C]DCDQ was mixed with non-radiolabeled DCDQ (1:3 or 1:5) in the incubations. Microsomal incubations consisted of [^14C]DCDQ, magnesium chloride (10 mM) and liver microsomes incubated in 0.5 mL of 0.1 M potassium phosphate buffer, pH 7.4. [^14C]DCDQ (20 μL) in water was added to the incubation tubes containing buffer, magnesium chloride solution and microsomes. After mixing, the tubes were pre-incubated for 2 minutes in a shaking water bath at 37° C. The reactions were initiated by the addition of UDPGA or the NADPH regenerating system. UDPGA was added to incubations as a 50 μL aliquot of a 20 mM solution in water, to give a final concentration of 2 mM. An NADPH regenerating system (30 μL) was added to incubations to evaluate CYP450-mediated metabolism. The NADPH regenerating system consisted of glucose-6-phosphate (2 mg/mL), glucose-6-phosphate dehydrogenase (0.8 units/mL) and NADP^+ (2 mg/mL). Control incubations were conducted under the same conditions, but without the NADPH generating system, UDPGA or microsomes. All incubations were performed in duplicate. Incubations were stopped by the addition of 0.5 mL ice-cold methanol. Samples were vortex-mixed. Denatured proteins were separated by centrifugation at 4300 rpm and 4° C. for 10 minutes (Model T21 super centrifuge, Sorvall). The protein pellets were extracted with 0.5 mL of methanol. The supernatant was combined for each sample, mixed and evaporated to a volume of about 0.3 mL under a nitrogen stream in a Zymark TurboVap LV evaporator (Caliper Life Science, Hopkinton, Mass.). The concentrated sample was centrifuged and aliquots were radioassayed and analyzed by HPLC. This method recovered an average of 92.1% of the radioactivity from the reaction mixture.
Initial rate conditions were determined for DCDQ metabolism in incubations with human liver microsomes in the presence of NADPH or UDPGA. Incubations for the time course study contained 20 μM of [^14C]DCDQ and 0.5 mg/mL of microsomal proteins, and were incubated at 37° C. with mild shaking for 0, 5, 10, 20, 30, 40, 50 and 60 minutes. The protein dependence study was conducted with 20 μM of [^14C]DCDQ incubated for 20 minutes with 0, 0.1, 0.25, 0.5, 0.75 and 1.0 mg/mL of microsomal proteins.
The Km values were determined with 0.5 mg/mL of human liver microsomes incubated with [^14C]DCDQ for 20 minutes with the NADPH regenerating system or for 10 minutes with UDPGA. [^14C]DCDQ concentrations used were 0.5,1, 5, 10, 25, 50, 75 and 100 μM.
To evaluate species differences in cytochrome P450- and UGT-mediated metabolism, [^14C]DCDQ was incubated for 20 minutes with 0.5 mg/mL liver microsomal proteins from mice, rats, dogs or humans in the presence of the NADPH regenerating system or UDPGA. The assay conditions were the same as described above, and DCDQ concentrations were 12 μM and 56 μM for cytochrome P450- and UGT-mediated metabolism, respectively.
A Waters model 2690 HPLC system (Waters Corp., Milford, Mass.) with a built-in autosampler was used for analysis. Separations were accomplished on a Phenomenex Luna C18(2) column (2×150 mm, 5 μm) (Phenomenex, Torrance, Calif.) coupled with a filter (4×2 mm) cartridge. A variable wavelength UV detector set to monitor 250 nm and Flo-One β Model A525 radioactivity flow detector (Perkin Elmer) with a 250 μL LQTR flow cell were used for data acquisition. The flow rate of Ultima Flow M scintillation fluid was 1 mL/min, providing a mixing ratio of scintillation cocktail to mobile phase of 5:1. The sample chamber in the autosampler was maintained at 4° C., while the column was at ambient temperature of about 20° C. The mobile phase consisted of 10 mM ammonium acetate, pH 4.5 (A) and methanol (B) and was delivered at 0.2 mL/min. The linear gradient conditions were as follows: […]
In general terms: Microsomes from liver hold many membrane-bound enzymes, among them those of drug oxidation.

Molecules are shown by their SMILES.

As a reminder, the Km is the substrate concentration at which the rate is half of its maximum. Take `O=C(O)[C@H]1O[C@@H](OC(=O)N2CCN3C[C@@H]4CCC[C@@H]4c4cccc(c43)C2)[C@H](O)[C@@H](O)[C@@H]1O` [Metabolite M6, carbamoyl glucuronide of DCDQ]: the Km at 10 min was determined as 56.1 µM.
